The results in this text go back to paper PMC4890880 (ACS infectious diseases, 2016).

Structures are written as SMILES. Read-outs that look alike come from different tables or passages of the source.

Data set [1] deals with HepG2-A16-CD81EGFP cells. In words: cells. Particulars: Homo sapiens, HepG2, read-out: % inhibition.
Data set [2] concerns HepG2-A16-CD81EGFP cells. In words: cells. Particulars: Homo sapiens, HepG2, read-out: % inhibition. The source holds these as a separate data set.
Data set [3] deals with Plasmodium berghei (Pb-Luc) exoerythrocytic-stage parasites. In words: microbe, parasite or virus in culture.
Data set [4] concerns HepG2-A16-CD81EGFP cells. As to conditions: human, 50 uM.
The mark [5] stands for this setting: read-out: Inhibition% @ 50 uM rep1.
Setting [6] is: read-out: Inhibition% @ 50 uM rep2.

On to `CCCN(CCC)CCCNC(=O)c1cc2c(-c3ccc(OC)c(OC)c3)nn(C)c2s1` [MMV000561], for which the inhibition at 50 µM stood at 100% in data set [1], 98.1% in data set [2], 104% in data set [3] (setting [5]) and 106% in data set [3] (setting [6]). In addition, the “HepG2 Tox% @ 50 uM rep2” value in data set [4] is recorded as 100%.
On to `CCN1CCN(c2cc(C)c3cc(NC(=O)c4ccc(OC)c(OC)c4)ccc3n2)CC1` [MMV019074], for which the inhibition at 50 µM is 100% in data set [1], 98.4% in data set [2], 104% in data set [3] (setting [5]) and 104% in data set [3] (setting [6]). For the same compound, in data set [4], the “HepG2 Tox% @ 50 uM rep2” value is on record as 100%.
Take `COc1cc2cc(C(=O)Nc3ccccc3)c(N)nc2cc1OC` [MMV006767]: the inhibition at 50 µM in data set [1] was 10.2%; in data set [2] it was 18.2%; in data set [3] (setting [5]), 73%; in data set [3] (setting [6]) it was 39%. In addition, in data set [4], the “HepG2 Tox% @ 50 uM rep2” value worked out at 10%.
Take `CN(C)c1ccc(-c2nc3cc(N)ccc3[nH]2)cc1` [MMV666102]: the inhibition at 50 µM in data set [1] was 32.6%; in data set [2] it was 29.4%; in data set [3] (setting [5]), 97%; in data set [3] (setting [6]), 94%. For the same compound, the “HepG2 Tox% @ 50 uM rep1” value in data set [4] is listed as 29%.
Turning to `COc1cccc(C2(C)Nc3ccccc3-c3nc4ccccc4n32)c1` (centres unmarked) [MMV396719], the inhibition at 50 µM in data set [1] is 99.7%; in data set [2] it was 97%; in data set [3] (setting [5]), 104%; in data set [3] (setting [6]), 106%. In addition, the “HepG2 Tox% @ 50 uM rep2” value in data set [4] is 100%.
In the case of `COc1ccc(C(=O)Nc2ccc(Cl)cc2C(=O)Nc2ccncc2)cc1` [MMV665799], the inhibition at 50 µM is -10.4% in data set [1], -8.2% in data set [2], 67% in data set [3] (setting [5]) and 39% in data set [3] (setting [6]). The “HepG2 Tox% @ 50 uM rep1” value in data set [4] is -8%. In data set [4], the “HepG2 Tox% @ 50 uM rep2” value was -10%.
For `CN1CCN(c2c3c(c(C#N)c4nc5ccccc5n24)CCC3)CC1` [MMV008127], the inhibition at 50 µM is -9.23% in data set [1], -6.02% in data set [2], 28% in data set [3] (setting [5]) and -16% in data set [3] (setting [6]). Moreover, the “HepG2 Tox% @ 50 uM rep2” value in data set [4] is reported as -9%.
Turning to `CCOC(=O)C1CCN(C(=O)CN2C(=O)c3ccccc3C2c2c[nH]c3ccccc23)CC1` (centres unmarked) [MMV011576], the inhibition at 50 µM was -12.2% in data set [1], -18.5% in data set [2], 41% in data set [3] (setting [5]) and 58% in data set [3] (setting [6]). Further, the “HepG2 Tox% @ 50 uM rep1” value in data set [4] was -19%. The “HepG2 Tox% @ 50 uM rep2” value in data set [4] is -12%.
Regarding `O=C(Nc1ccccc1O)c1ccc(-c2ccc(Cl)cc2Cl)o1` [MMV665948], the inhibition at 50 µM in data set [1] is -7.03%; in data set [2], 15.3%; in data set [3] (setting [5]), 8%; in data set [3] (setting [6]), -61%. For the same compound, the “HepG2 Tox% @ 50 uM rep1” value in data set [4] turned out to be 15%.
`CCCC(c1nnnn1C1CCCCC1)N1CCN(C(=O)c2ccco2)CC1` (centres unmarked) [MMV666093]: the inhibition at 50 µM in data set [1] is -2.45%; in data set [2], -5.78%; in data set [3] (setting [5]) it was 52%; in data set [3] (setting [6]), 19%. The “HepG2 Tox% @ 50 uM rep1” value in data set [4] is reported as -6%.
Regarding `Cc1cc(NC(=O)c2cccc(C(F)(F)F)c2)n(-c2nc(-c3ccc4c(c3)OCO4)cs2)n1` [MMV396681], the inhibition at 50 µM in data set [1] is -14.2%; in data set [2], -14.6%; in data set [3] (setting [5]), 1.11%; in data set [3] (setting [6]), -36%. Moreover, the “HepG2 Tox% @ 50 uM rep1” value in data set [4] is given as -15%. Moreover, in data set [4], the “HepG2 Tox% @ 50 uM rep2” value was -14%.
For the compound `COc1ccc(-c2nc3cc(Cc4ccc5[nH]c(-c6ccc(OC)cc6)nc5c4)ccc3[nH]2)cc1` [MMV007384], the inhibition at 50 µM in data set [1] was found to be 99.2%; in data set [2], 96%; in data set [3] (setting [5]), 104%; in data set [3] (setting [6]), 105%.
In the case of `COc1ccc(C=C2SC(=N)N(c3ccccc3OC)C2=O)cc1` [MMV666691], the inhibition at 50 µM in data set [1] is 98.5%; in data set [2], 94.9%; in data set [3] (setting [5]), 103%; in data set [3] (setting [6]), 104%.
On the same counts, the results for `COc1cccc(NC(=O)Cn2c(C)c(C#N)c3ccccc32)c1` [MMV665826] are 77.8%, 49.1%, 102% and 101%.
Taken in the same sequence, the figures for `O=c1nc(C=Cc2ccc(Cl)cc2)oc2ccccc12` [MMV007977] were 85.9%, 78.9%, 104% and 106%.
As for `CCn1c(SCC(=O)Nc2cc(C(F)(F)F)ccc2Cl)nc2ccccc2c1=O` [MMV666103], the inhibition at 50 µM is -0.573% in data set [1], -3.72% in data set [2], 69% in data set [3] (setting [5]) and 87% in data set [3] (setting [6]).
Taken in the same sequence, the figures for `Oc1ccccc1CN1CCC2(CCCN(Cc3ccccc3F)C2)C1` (centres unmarked) [MMV666116] were 85.7%, 73.5%, 98% and 100%.
Regarding `COc1cc(SC)ccc1C(=O)N1CCCC(C)C1` (centres unmarked) [MMV056726], the inhibition at 50 µM in data set [1] was determined as 67.3%; in data set [2], 65.4%; in data set [3] (setting [5]), 86%; in data set [3] (setting [6]), 93%.
On the same counts, the results for `Cc1cccc(Nc2nc(N)c3ccccc3n2)c1` [MMV019110] are 92%, 91.6%, 99% and 98%.
On the same counts, the results for `Cc1ccc(Nc2nc(NCCO)c3ccccc3n2)cc1C` [MMV001038] are 96.1%, 94.2%, 102% and 102%.
On to `O=C(Nc1ccsc1C(=O)NC1CCCCC1)c1ccc(F)cc1` [MMV665939], for which the inhibition at 50 µM in data set [1] is 35%; in data set [2], 25.8%; in data set [3] (setting [5]) it was 71%; in data set [3] (setting [6]) it was 43%.
On the same counts, the results for `CSc1ccccc1C(=O)Nc1nc(-c2ccccn2)cs1` [MMV001246] are 86.4%, 82.2%, 101% and 104%.
On the same counts, the results for `CC1CCCCN1CCCNC(=O)c1ccc2c(c1)sc1nc(-c3ccc(F)cc3)cn12` (centres unmarked) [MMV000634] are 98.9%, 97%, 103% and 103%.
`CC1CN(C(=O)c2sc3ccccc3c2Cl)CC(C)O1` (centres unmarked) [MMV020492]: the inhibition at 50 µM in data set [1] worked out at 23.2%; in data set [2] it was 25%; in data set [3] (setting [5]), 44%; in data set [3] (setting [6]), 44%.
`CCOC(=O)c1ccc2nc(-c3ccccc3)cc(O)c2c1` [MMV006457]: the inhibition at 50 µM came out at 82.5% in data set [1], 78.2% in data set [2], 102% in data set [3] (setting [5]) and 104% in data set [3] (setting [6]).
With `O=C(CCc1ccco1)NC1CCN(CC2(c3ccc(Cl)cc3)CCC2)CC1` [MMV666108], the inhibition at 50 µM in data set [1] came to 67.1%; in data set [2] it was 54.1%; in data set [3] (setting [5]), 101%; in data set [3] (setting [6]) it was 102%.
Consider `CCN(Cc1ccccc1)C1CCN(Cc2cc(Br)ccc2O)CC1` [MMV019127], for which the inhibition at 50 µM was determined as 86% in data set [1], 82.2% in data set [2], 102% in data set [3] (setting [5]) and 104% in data set [3] (setting [6]).
On the same counts, the results for `CC1CCN(Cc2ccc(NC(=O)c3cc4ccc5cccnc5c4[nH]3)cc2)CC1` [MMV020549] are 96.7%, 95.4%, 104% and 106%.
For `CCCCc1ccc(NS(=O)(=O)c2cc3c4c(c2)CCN4C(=O)CC3)cc1` [MMV001255], the inhibition at 50 µM in data set [1] stood at 77.1%; in data set [2], 67.8%; in data set [3] (setting [5]) it was 98%; in data set [3] (setting [6]), 92%.
Consider `Oc1ccc(Cl)cc1CNc1nc2ccccc2[nH]1` [MMV665850], for which the inhibition at 50 µM in data set [1] came out at 98.7%; in data set [2], 98.1%; in data set [3] (setting [5]) it was 103%; in data set [3] (setting [6]), 104%.
On the same counts, the results for `O=C(Nc1ccc(N2CCCCC2)c(Cl)c1)c1ccc(Br)o1` [MMV019700] are 99%, 97.5%, 104% and 106%.
Turning to `CNCCCNc1ccnc2cc(Cl)ccc12` [MMV020500], the inhibition at 50 µM came to 101% in data set [1], 101% in data set [2], 104% in data set [3] (setting [5]) and 105% in data set [3] (setting [6]).
Take `CCOc1cc(Cl)c(C(C)NC(=O)c2cccc(OC)c2)cc1OCC` (centres unmarked) [MMV665803]: the inhibition at 50 µM was found to be 97.7% in data set [1], 86.5% in data set [2], 104% in data set [3] (setting [5]) and 106% in data set [3] (setting [6]).
In the case of `CCC1(C)CC(CCNCc2ccccc2O)(c2ccc(C)cc2)CCO1` (centres unmarked) [MMV019406], the inhibition at 50 µM in data set [1] worked out at 98.3%; in data set [2], 96.7%; in data set [3] (setting [5]) it was 102%; in data set [3] (setting [6]) it was 102%.
`COc1cccc(O)c1CN1CCC2(CCCN(Cc3ccc(F)cc3)C2)C1` (centres unmarked) [MMV666061]: the inhibition at 50 µM is 98.8% in data set [1], 96.5% in data set [2], 103% in data set [3] (setting [5]) and 103% in data set [3] (setting [6]).
Turning to `OC(CNC1CCCC1)Cn1c2ccccc2c2ccccc21` (centres unmarked) [MMV000848], the inhibition at 50 µM was found to be 99.2% in data set [1], 96.9% in data set [2], 103% in data set [3] (setting [5]) and 104% in data set [3] (setting [6]).
